According to the NIST ThermoML archive (doi:10.1016/j.jct.2008.03.017):
± gives the expanded uncertainty stated by the source.

Conditions: Liquid; for mass density: 101.33 kPa

| SMILES | mass density (298.15 K) [kg/m3] | vapor or sublimation pressure (298.15 K) [kPa] | mass density (328.15 K) [kg/m3] | vapor or sublimation pressure (328.15 K) [kPa] |
| --- | --- | --- | --- | --- |
| C1COCO1 [1,3-dioxolane] | 1058.62 ± 0.71 | 13.54 ± 0.14 | 1039.88 ± 0.64 | 49.01 ± 0.19 |
| C1COCCO1 [1,4-dioxane] | 1027.87 ± 0.6 | 4.9 ± 0.13 | 1010.69 ± 0.53 | 19.54 ± 0.15 |
| CCCCCCCl [1-chlorohexane] | 873.5 | 1.255 ± 0.13 | 859.01 | 5.965 ± 0.13 |
| C1CCOC1 [tetrahydrofuran] | 881.95 ± 0.45 | 21.61 ± 0.15 | 865.36 ± 0.49 | 70.61 ± 0.22 |
| C1CCOCC1 [tetrahydropyran] | 878.81 ± 0.81 | 9.56 ± 0.14 | 863.67 ± 0.85 | 33.95 ± 0.17 |
